Here are results for 5 compounds from patent US11186588B2 (AYUMI PHARMACEUTICAL CORPORATION, priority 2017, dated 2021).

Usually inhibition stands for the percentage by which the read-out fell short of the control. The IC50 is the point on the concentration scale where inhibition reaches its midpoint. Lower therefore signals inhibition by little substance. The term inhibition in vivo denotes the percentage by which the read-out fell short of the control. A higher inhibition in vivo goes with a response far below the control.

Test [1] deals with Recombinant BRD4 (44-168) protein (Homo sapiens (Human), UniProt O60885). Nature of the test: BRD4-H4KAc4 binding assay (amplified luminescence proximity homogeneous assay, AlphaScreen). Conditions: 10 uM. An outline of the steps: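 His/FLAG-tagged BRD4 (44-168) and biotinylated tetra-acetylated H4 peptide, each added as 250 nM solutions, incubated with compound 60 min at room temperature in the dark, then AlphaScreen beads 60 min. Emission 520-620 nm at 680 nm excitation, duplicates; % inhibition from blank- and DMSO-corrected signal.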
(Alpha assays give light when donor and acceptor beads are brought close together.)

The test system of test [2] is NF-κB. Nature of the test: NF-κB reporter gene assay (TNF-α stimulated A549/NF-κB-luc cells). The class given is cell-based. The conditions noted are these: Homo sapiens, TNF-α stimulation. An outline of the steps: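 A549 cells stably carrying an NF-κB luciferase reporter were preincubated with compound for 1 h, then stimulated with TNF-α for 3 h. Luminescence was read with Steady-Glo, and inhibition was scaled between blank and DMSO control wells. IC50 was obtained by curve fitting.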
(In general: In a reporter assay the amount or activity of a reporter protein is the signal.)

Test [3] concerns IL-6 production. Nature of the test: LPS-induced IL-6 production model test. The conditions noted are these: Mus musculus, 1 h; 10 mg/kg oral, 30 min before LPS 1 mg/kg i.p., serum IL-6 60 min after LPS, mice. The class given is in vivo, C57BL/6J mice. The protocol:
In order to evaluate the inhibitory activity of inflammatory cytokine production in the present compounds, LPS-induced IL-6 production model evaluation was carried out. The specific method is described below.
An appropriate amount of each compound was weighed, triturated with an agate mortar, and suspended or dissolved in 1% methyl cellulose solution to prepare 1 mg/mL solution.
C57BL/6J mice (male, Purchaser: Charles River Laboratories Japan, Inc.) were weighted, before divided into normal group, control group and each compound-administered group based on the measured body weight using a random number, wherein each group contained 6 samples. The mice were manually held in hands and forced orally administered the 1% methyl cellulose solution (normal and control group) or each administration solution comprising the compound (each compound-administered group) at a dose of 10 mL/kg into stomach using a feeding needle. After 30 minutes from administration of the 1% methyl cellulose solution or each compound administration solution, the mice were manually held in hands and intraperitoneally administered physiological saline (normal group) or LPS solution (control and each compound-administered group) at a dose of 1 mg/kg. After 60 minutes from administration of the LPS solution, whole blood was collected from the abdominal vena cava of each mouse under isoflurane inhalation anesthesia (available from Mylan Seiyaku Ltd.), and the mice were euthanized. The collected blood was allowed to stand at room temperature for one hour, and then centrifuged at 1,500 G for 10 minutes to collect a serum (supernatant). The collected serum was stored in a deep freezer set at −80° C. until the measurement of IL-6 in the serum. The IL-6 concentration in the serum of each mouse was measured by a commercially available kit (available from R&D systems, Cat No. M6000B), according to the protocol attached thereto.
The IL-6 production inhibition rate (%) was calculated by the following equation using Microsoft EXCEL 2010. IL-6 production inhibition rate (%)=100−{(average value of IL-6 concentration in serum of each compound-administered group)−(average value of IL-6 concentration in serum of normal group))/(average value of IL-6 concentration in serum of control group)−(average value of IL-6 concentration in serum of normal group)}×100

For `Cc1sc2c(c1C)C(c1ccc(Cl)cc1)=NN(Cc1ccccn1)c1nnc(C)n1-2` [Example 5, 4-(4-chlorophenyl)-2,3,9-trimethyl-6-(pyridin-2-ylmethyl)-6H-thieno[2,3-e][1,2,4]triazolo[3,4-c][1,2,4]triazepine], in test [1], the inhibition at 10 µM was 100%. Half-maximal inhibition in test [2] (IC50) was put at 27.5 nM. This compound registered an inhibition in vivo at 10 mg/kg in test [3] of 77.5%.

Take `Cc1sc2c(c1C)C(c1ccc(Cl)cc1)=NN(Cc1cccnc1F)c1nnc(C)n1-2` [Example 25, 4-(4-chlorophenyl)-6-((2-fluoropyridin-3-yl)methyl)-2,3,9-trimethyl-6H-thieno[2,3-e][1,2,4]triazolo[3,4-c][1,2,4]triazepine]: in test [1], the inhibition at 10 µM was 100%. Also, the IC50 in test [2] came to 50.3 nM. In test [3], this compound displayed an inhibition in vivo at 10 mg/kg of 26.3%.

`Cc1sc2c(c1C)C(c1ccccc1)=NN(Cc1ccccn1)c1nnc(C)n1-2` [Example 31, 2,3,9-trimethyl-4-phenyl-6-(pyridin-2-ylmethyl)-6H-thieno[2,3-e][1,2,4]triazolo[3,4-c][1,2,4]triazepine]: in test [1], the inhibition at 10 µM was determined as 97.8%. The compound also returned an IC50 in test [2] of 150 nM. This compound also came in with an inhibition in vivo at 10 mg/kg in test [3] of 57.5%.

`Cc1sc2c(c1C)C(c1ccc(Cl)cc1)=NN(Cc1cccnc1Cl)c1nnc(C)n1-2` [Example 38, 4-(4-chlorophenyl)-6-((2-chloropyridin-3-yl)methyl)-2,3,9-trimethyl-6H-thieno[2,3-e][1,2,4]triazolo[3,4-c][1,2,4]triazepine]: the inhibition at 10 µM in test [1] was found to be 100%. The compound also gave an IC50 in test [2] of 106 nM. In test [3], this compound registered an inhibition in vivo at 10 mg/kg of 20.2%.

For the compound `CC(=O)Nc1ccc(C2=NN(Cc3cccnc3)c3nnc(C)n3-c3sc(C)c(C)c32)cc1` [Example 71, N-(4-(2,3,9-trimethyl-6-(pyridin-3-ylmethyl)-6H-thieno[2,3-e][1,2,4]triazolo[3,4-c][1,2,4]triazepin-4-yl)phenyl)acetamide], in test [1], the inhibition at 10 µM was determined as 100%. The same compound returned an IC50 in test [2] of 634 nM. In test [3], this compound registered an inhibition in vivo at 10 mg/kg of 79%.
